In patent publication US12522596B2, “Compounds as GLP-1R agonists” (Terns Pharmaceuticals, Inc., priority 2021, dated 2026):

Columns and labels:
Type in all cases: in vitro ADME
[1] = Metabolic stability in rat hepatocytes; conditions: cryopreserved hepatocytes, 1 μM
Protocol: (§1) Test compounds were incubated in rat and human hepatocytes and stability was assessed from the substrate […] approach. Test compounds were dissolved in dimethyl sulfoxide (DMSO) to create a 10 mM Stock, and then further diluted to create a 1000× Working Stock of 1 mM with DMSO in 96-well plates for test compounds and the positive control (midazolam). Vials containing cryopreserved hepatocytes were removed from the liquid nitrogen tank and immediately immersed in a 37° C. water bath. The vials were shaken gently until the contents had thawed and were then immediately emptied into 48 mL of pre-warmed HT Medium in a 50 mL conical tube. Cells remaining in the vial were resuspended with 1.0 mL of pre-warmed HT Medium and added to the conical tube. The tube was capped and then gently inverted several times to resuspend the hepatocytes. The cell suspension was centrifuged at 50×g at room temperature for 5 minutes and the supernatant discarded. The cell pellet was loosened by gently swirling the centrifuge tube and was re-suspended in 4 mL of warm Dulbecco's Modified Eagle medium (DMEM). Cell density was determined by a cell counter by Nexcelom, and DMEM medium was added to obtain a target density of 1×10^6 cells/mL. The assay was carried out in 96-well microtiter plates. Test Compounds were incubated at 1 μM with 1×10^6 cells/mL hepatocytes in DMEM for 0, 30, 60, 120 and 240 minutes. The incubation was carried out with gentle shaking at 37° C. under a humid atmosphere of 95% air/5% CO2. The volume of the incubation mixture was 37 μL with a final 0.1% DMSO. At each of the time points, the incubation was stopped by adding 150 μL quenching solution (100% acetonitrile, 0.1% formic acid containing bucetin as an internal standard for positive ESI mode). Subsequently, the mixtures were vortexed for 20 min and centrifuged at 4,000 RPM at 10° C. The supernatant (80 μL) was transferred to a clean 96-well plate and analyzed by LC-MS/MS. Midazolam at 1 μM with a final 0.1% DMSO was included as a positive control to verify assay performance. The percent parent remaining, intrinsic and predicted hepatic clearance and t1/2 were calculated. All samples were analyzed by LC-MS/MS using an AB Sciex API 4000 instrument, coupled to a Shimadzu LC-20AD LC Pump system. Separation was achieved using a Waters Atlantis T3 dC18 reverse phase HPLC column (20 mm×2.1 mm) at a flow rate of 0.5 mL/min. The mobile phase consisted of 0.1% formic acid in water (solvent A) and 0.1% formic acid in 100% acetonitrile (solvent B). Elution conditions are detailed below.
(§2) The ion optics of each test compound were optimized for their declustering potential (DP), […] (CE), collision-cell exit potential (CXP) and used in a selected ion monitoring experiment in the positive ion mode. The peak area ratio of each test compound to internal standard was then evaluated for stability. The extent of metabolism was calculated based on the disappearance of the test compound, compared to its initial concentration. The initial rates of clearance of the test compound were calculated using the linear regression plot of semi-log % remaining of the compound versus time. The elimination rate constant (k) of the linear regression plot was then used to determine t1/2 and the intrinsic clearance (CLint) using the following formula, where Chepatocyte (million cells/mL) is the cell density of the incubation:
(§3) The predicted hepatic clearance (CLhep) was calculated using the well stirred method with the following formula with CLint(in vivo) normalized based on liver weight: […]
(§4) The relevant physiological parameters of liver weight, blood flow, and hepatocellularity for various species are listed below: […]

[2] = Metabolic stability in human hepatocytes; conditions: cryopreserved hepatocytes; human hepatocytes, 1 μM
Protocol: as §1, §2, §3, §4

[3] = Caco-2 passive permeability and efflux ratio; conditions: human; for efflux ratio at 120 min, 5 μM: pH 7.4, Caco-2, Papp (B-to-A)/Papp (A-to-B), read-out: Efflux Ratio (ER); for Papp at 120 min, 5 μM: Caco-2, 5 μM, pH 7.4, 120 minutes
Protocol: Caco-2 cells (clone C2BBe1) were obtained from American Type Culture Collection (Manassas, VA). Cell monolayers were grown to confluence on collagen-coated, microporous membranes in 12-well assay plates. Details of the plates and their certification are shown below. The permeability assay buffer was Hanks' balanced salt solution containing 10 mM HEPES and 15 mM glucose at a pH of 7.4. The buffer in the receiver chamber also contained 1% bovine serum albumin. The dosing solution concentration was 5 μM of test article in the assay buffer. Cell monolayers were dosed on the apical side (A-to-B) or basolateral side (B-to-A) and incubated at 37° C. with 5% CO2 in a humidified incubator. Samples were taken from the donor and receiver chambers at 120 minutes. Each determination was performed in duplicate. The flux of lucifer yellow was also measured post-experimentally for each monolayer to ensure no damage was inflicted to the cell monolayers during the flux period. All samples were assayed by LC-MS/MS using electrospray ionization. The apparent permeability (Papp) and percent recovery were calculated as follows:
[formula] [formula] where, dCr/dt is the slope of the cumulative receiver concentration versus time in μM s^−1; Vr is the volume of the receiver compartment in cm^3; Vd is the volume of the donor compartment in cm^3; A is the area of the insert (1.13 cm^2 for 12-well); CA is the average of the nominal dosing concentration and the measured 120-minute donor concentration in μM; CN is the nominal concentration of the dosing solution in μM; Cr^final is the cumulative receiver concentration in μM at the end of the incubation period; Cd^final is the concentration of the donor in μM at the end of the incubation period. Efflux ratio (ER) is defined as Papp (B-to-A)/Papp (A-to-B).

Row | CLint scaled at 1 μM [1] | half-life at 1 μM [1] | CLint scaled at 1 μM [2] | half-life at 1 μM [2] | efflux ratio at 120 min, 5 μM [3] | Papp at 120 min, 5 μM [3] | Compound
1 | 30.2 ± 1.5 mL/min/kg | 110 ± 5.44 min | 17.5 ± 1.33 mL/min/kg | 138 ± 10.5 min | 1.31 | 16.8 ×10⁻⁶ cm/s | CC1(c2ccc(C#N)cc2F)Oc2cccc(C3CCN(Cc4nc5ccc(C(=O)O)cc5n4Cc4cncs4)CC3)c2O1 (centres unmarked) [Compound 31]
2 | 38.9 ± 1.14 mL/min/kg | 89.6 ± 2.64 min | 10.6 ± 0.66 mL/min/kg | 229 ± 14.4 min | 9.77 | 2.82 ×10⁻⁶ cm/s | N#Cc1ccc(COc2ccnc(C3CCN(Cc4nc5ccc(C(=O)O)cc5n4Cc4cncs4)CC3)n2)c(F)c1 [Compound 20]

Second part, the compound before the results:

Row | Compound | CLint scaled at 1 μM [1] | half-life at 1 μM [1] | CLint scaled at 1 μM [2] | half-life at 1 μM [2] | efflux ratio at 120 min, 5 μM [3] | Papp at 120 min, 5 μM [3]
3 | N#Cc1ccc(COc2cccc(N3CCN(Cc4nc5ccc(C(=O)O)cc5n4Cc4cncs4)CC3)n2)c(F)c1 [Compound 30] | 32.5 ± 0.73 mL/min/kg | 103 ± 2.3 min | 7.18 ± 0.31 mL/min/kg | 335 ± 14.7 min | 2.14 | 9.41 ×10⁻⁶ cm/s
4 | N#Cc1ccc(COc2cccc(C3CCN(Cc4nc5ccc(C(=O)O)cc5n4C[C@@H]4CCO4)CC3)n2)c(F)c1 [Reference Compound A, reference compound] | 48.2 ± 1.33 mL/min/kg | 72.3 ± 2.55 min | 7.18 ± 0.45 mL/min/kg | 347 ± 22.7 min |  | 15.5 ×10⁻⁶ cm/s
5 | Cc1ncsc1Cn1c(CN2CCC(c3cccc(OCc4ccc(C#N)cc4F)n3)CC2)nc2ccc(C(=O)O)cc21 [Compound 4] | 36 ± 1.36 mL/min/kg | 97.2 ± 2.86 min | 24.3 ± 0.74 mL/min/kg | 99.7 ± 3.05 min | 0.975 | 49.9 ×10⁻⁶ cm/s
6 | N#Cc1ccc(COc2cccc(C3CCN(Cc4nc5ccc(C(=O)O)cc5n4Cc4cncs4)CC3)n2)c(F)c1 [Compound 2] | 42.6 ± 2.46 mL/min/kg | 79.4 ± 4.98 min | 15.5 ± 0.82 mL/min/kg | 156 ± 9.23 min | 1.66 | 31.5 ×10⁻⁶ cm/s
